Measured values as given in patent US9234025B2, “Extracellular allosteric inhibitor binding domain from a tyrosine kinase receptor” (SANOFI, priority 2009, dated 2016).

How the values were obtained:
B9-FGFR3TD cell line = assay: B9 myeloma cell proliferation, FGFR3TD (K650E); format: cell-based; settings: constitutively activated FGFR3 K650E
Description: Cell proliferation was analysed on exponentially growing cells that were starved for 16 hours in IMDM (Invitrogen, 31980048), 0.2% FBS, 2 mM glutamine containing medium and seeded at 4,000 cells/well in 96-well microplates. After exposure to mitogens and/or SSR for 72 hours, cell proliferation was assessed with the use of the CellTiter 96 AQueous One Solution Cell Proliferation Assay (Promega, Madison, Wis., USA) according to manufacturer's instructions.
For studying SSR effect on FGFR3, the proliferation of B9-myeloma cells, expressing either FGFR3WT or FGFR3TD (a constitutively activated FGFR3 variant induced by the K650E mutation, even in the absence of any ligand; Truedel et al; blood 2006), was assayed by stimulation with FGF1 (25 ng/ml).

various FGFRs = assay: additional SPA assays, FGF ligands to various FGFRs; format: binding
FGFR1 = molecular target: T1, FGFR1 (Homo sapiens, UniProt P11362); assay: AlexaFluor488-FGF2 binding on FGFR1-transfected 300-19 cells (flow cytometry); settings: SSR 300 nM; FGF2 10 ng/ml; murine pre-B 300-19 cells
T1 construct: V5/His (encoded by the vector); expressed in transfected cells; host or cells: murine pre-B 300-19 cells
T1 sequence (P11362 22-822): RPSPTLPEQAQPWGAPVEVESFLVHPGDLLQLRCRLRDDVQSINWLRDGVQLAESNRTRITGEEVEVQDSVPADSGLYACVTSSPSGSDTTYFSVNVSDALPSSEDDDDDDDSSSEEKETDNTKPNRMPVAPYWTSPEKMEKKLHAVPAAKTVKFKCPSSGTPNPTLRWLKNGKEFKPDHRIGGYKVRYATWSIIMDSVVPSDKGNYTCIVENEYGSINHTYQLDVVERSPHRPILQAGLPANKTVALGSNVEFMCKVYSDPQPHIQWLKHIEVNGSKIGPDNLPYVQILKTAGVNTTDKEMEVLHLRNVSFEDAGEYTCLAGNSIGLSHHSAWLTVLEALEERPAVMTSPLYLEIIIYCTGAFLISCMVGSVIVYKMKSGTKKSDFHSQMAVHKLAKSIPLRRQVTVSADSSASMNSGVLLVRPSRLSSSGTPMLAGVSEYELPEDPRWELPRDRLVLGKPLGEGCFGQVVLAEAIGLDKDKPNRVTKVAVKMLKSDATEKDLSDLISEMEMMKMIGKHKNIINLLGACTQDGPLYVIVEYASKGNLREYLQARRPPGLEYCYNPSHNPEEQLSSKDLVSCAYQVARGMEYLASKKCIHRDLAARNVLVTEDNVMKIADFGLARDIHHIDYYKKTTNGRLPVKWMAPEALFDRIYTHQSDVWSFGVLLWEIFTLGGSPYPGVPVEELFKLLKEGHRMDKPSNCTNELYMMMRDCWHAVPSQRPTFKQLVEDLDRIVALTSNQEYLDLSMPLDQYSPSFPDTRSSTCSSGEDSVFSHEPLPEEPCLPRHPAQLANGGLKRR
Description: FGF2 was labeled with Alexa Fluor 488 C5-maleimide (Invitrogen, A10254) following purchaser recommendations.
This AF488-FGF2 was used at 10 ng/ml in binding experiments on murine pre-B 300-19 cells transfected with FGFR1 or FGFR4 constructs in pEF6-V5/His Topo plasmids (Invitrogen). SSR (300 nM final) was pre-incubating 20 min with cells in RPMI 1640 (Invitrogen, 32404-014) with 10% FCS (Hyclone, SH30070.03), 2 mM glutamine, MEM non-essential amino-acid 1× (Gibco, 11140-035), MEM sodium pyruvate 1× (Gibco, 11360-039) and […] monothioglycerol (Sigma, M6145) at 4° C. under 150 rpm agitation. Then, FGF2 (10 ng/ml final) is added for 30 min and binding is measured using a FACS Calibur flow cytometer (Beckton Dickinson). Fluorescence median for each condition is also analysed.

[1] = system: human umbilical vein endothelial cells (HUVECs); assay: I125-FGF2 binding assay on HUVECs; settings: intact cells, SSR even at high μM concentrations
FGFR2^∂123 = molecular target: T2, FGFR2^∂123 (Homo sapiens, UniProt P21802); assay: anisotropy measurement, FGF1-lumio binding to FGFR2 ECD without Fc-tag; settings: >1,000 fold molar excess of SSR; FGF1-lumio 1 μM
T2 construct: we purified the entire extracellular domain of FGFR2 without Fc-tag (FGFR2^∂123); made in house
T2 sequence (P21802 22-377 limits assumed): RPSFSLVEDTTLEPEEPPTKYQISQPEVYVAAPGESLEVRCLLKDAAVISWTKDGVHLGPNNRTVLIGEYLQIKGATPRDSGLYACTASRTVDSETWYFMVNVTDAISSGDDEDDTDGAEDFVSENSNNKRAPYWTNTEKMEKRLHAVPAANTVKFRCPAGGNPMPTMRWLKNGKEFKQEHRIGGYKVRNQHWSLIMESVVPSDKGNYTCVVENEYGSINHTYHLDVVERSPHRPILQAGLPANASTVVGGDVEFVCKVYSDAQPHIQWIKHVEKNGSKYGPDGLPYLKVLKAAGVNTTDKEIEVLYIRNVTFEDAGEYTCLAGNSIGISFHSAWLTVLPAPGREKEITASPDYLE
Description: To assess whether SSR inhibits the binding of FGF1 to its binding pocket, we purified the entire extracellular domain of FGFR2 without Fc-tag (FGFR2^∂123) and measured the tumbling speed (as a parameter of anisotropy) of a fluorescent lumio-tagged FGF1 (FGF1-lumio; constant concentration of 1 μM) in the presence of varying concentrations of FGFR2^∂123 without (blue) or with (red) SSR (1 mM). When FGFR2^∂123 was added to FGF1-lumio, the tumbling speed of the ligand/receptor complex was slower than of FGF-lumio alone, because of its larger size.
One hallmark of allosteric interactions is the phenomenon of ‘probe-dependence’ i.e., variations in the magnitude and direction of an allosteric interaction depending on the nature of the orthosteric ligand-receptor complex with which the modulator is interacting (May et al., 2007). To determine whether the effects of SSR on ^125I-FGF2 binding in the SPA were dependent on the configuration of the engineered FGFR/Fc fusion protein plated on an artificial substrate, we next studied whether SSR inhibited the binding of a fluorescent lumio-tagged FGF1 (FGF1-lumio) to a purified ECD of FGFR2 without the Fc-tag (FGFR2^∂123), by measuring the tumbling speed as a parameter of anisotropy. When FGFR2^∂123 was added to FGF1-lumio, the tumbling speed of the ligand/receptor complex was slower than of FGF-lumio alone because of its larger size. […]

FGFR2^∂23-Y328D = FGFR2^∂23-Y328D (Homo sapiens, UniProt P21802, Y328D); assay: FGF2-induced ERK1/2 phosphorylation in HEK293 cells, FGFR2 Y328D; format: cell-based; set-up: stably transfected HEK293 cells with full length FGFR2-WT or -Y328D; expressed in transfected cells; host or cells: HEK293; settings: stable HEK293 FGFR2 Y328D cells; FGF2 0.5 ng/ml 5 min; average±sem, three experiments; read-out: IC50 value, inhibition of FGF2 induced ERK1/2 phosphorylation
Chain of FGFR2^∂23-Y328D (P21802 22-821 Y328D): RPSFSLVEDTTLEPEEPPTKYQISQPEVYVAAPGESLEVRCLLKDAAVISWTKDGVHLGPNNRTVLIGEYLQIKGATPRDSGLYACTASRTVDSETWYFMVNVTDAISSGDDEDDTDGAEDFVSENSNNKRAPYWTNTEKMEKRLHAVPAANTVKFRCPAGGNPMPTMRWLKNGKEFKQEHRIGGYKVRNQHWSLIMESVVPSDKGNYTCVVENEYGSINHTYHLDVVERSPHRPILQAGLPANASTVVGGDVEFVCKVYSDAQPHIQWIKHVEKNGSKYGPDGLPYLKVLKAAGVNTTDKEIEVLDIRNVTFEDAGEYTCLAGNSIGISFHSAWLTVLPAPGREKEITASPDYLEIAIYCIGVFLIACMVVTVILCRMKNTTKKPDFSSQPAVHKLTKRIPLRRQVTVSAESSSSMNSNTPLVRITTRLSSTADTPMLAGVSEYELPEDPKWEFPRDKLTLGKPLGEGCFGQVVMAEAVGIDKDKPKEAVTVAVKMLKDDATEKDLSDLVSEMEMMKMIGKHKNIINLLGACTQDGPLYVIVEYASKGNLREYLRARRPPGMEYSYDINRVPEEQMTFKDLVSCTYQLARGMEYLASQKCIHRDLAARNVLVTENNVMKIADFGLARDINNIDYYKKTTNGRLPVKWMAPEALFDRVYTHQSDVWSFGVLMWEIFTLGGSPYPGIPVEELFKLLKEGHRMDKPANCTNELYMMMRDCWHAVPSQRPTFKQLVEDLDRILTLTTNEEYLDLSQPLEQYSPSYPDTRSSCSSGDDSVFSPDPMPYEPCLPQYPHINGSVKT
Description: HEK293 cells were either transiently of stably transfected (using FuGENE 6, Roche) with hFGFR2IIIca or hFGFR2IIIca-Y328D cloned in pcDNA3 (Invitrogen). Stably transfected cells were grown in G418 (400 μg/ml) containing medium. Before stimulation, the cells were starved overnight in DMEM (0% serum), and pre-incubated with […] at the required concentration. The cells were subsequently stimulated with FGF2 (concentration between 0.5-10 ng/ml) for 5 min at 37° C. with or without SSR or SU5402 at 1 μM. After washing with ice-cold phosphate-buffered saline containing phosphatase inhibitors (Roche), cells were lysed in RIPA buffer (Tris 30 mM HCl pH 7.5, 150 mM NaCl, 1 mM EDTA, 1% triton-X, 0.5% w/v deoxycholate, containing phophatase and protease inhibitors as described by the manufacturer (Roche)). Cell lysates were centrifuged at 12,000 g for 10 min, and the supernatants were collected. Proteins were separated on Novex polyacrylamide gels (Invitrogen, Carlsbad, Calif.) and subsequently transferred onto Hybond ECL nitrocellulose membranes (Amersham Pharmacia). Following incubation with 5% non-fat milk powder in PBS, the membranes were incubated overnight at 4° C. with the following antibodies: phospho-ERK1/2 (CST:9101), phospho-FRS2 (CST:3861), phospho-PLCγ (CST:2821) and FGFR2 (F0300, Sigma).

[2] = molecular target: T3, TNF-R1 extracellular protein (Homo sapiens, UniProt P19438); assay: STD-NMR binding assay, TNF-R1 control; settings: STD-NMR specificity control
T3 construct: made in house
T3 sequence (P19438 30-211 limits assumed): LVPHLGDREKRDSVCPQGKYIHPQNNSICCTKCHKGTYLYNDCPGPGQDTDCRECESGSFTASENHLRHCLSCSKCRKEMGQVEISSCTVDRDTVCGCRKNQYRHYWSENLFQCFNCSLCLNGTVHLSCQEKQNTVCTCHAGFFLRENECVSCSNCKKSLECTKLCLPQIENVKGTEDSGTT

Compound: COc1c(C)c(C(=O)c2ccc(N)c(C(=O)[O-])c2)n2ccccc12.[Na+] [SSR]
- proliferation of B9-FGFR3TD cells (B9-FGFR3TD cell line): insensitve
- binding of different FGF ligands to various FGFRs (various FGFRs): blocking the binding of different FGF ligands to various FGFRs
- competition with AlexaFluor488-labelled FGF2 binding to FGFR1 (FGFR1): not able to compete this binding
- inhibition of I^125-FGF2 binding to its receptor [1]: unable to inhibit I^125-FGF2 binding
- tumbling speed (anisotropy) of FGF1-lumio/FGFR2^∂123 complex (FGFR2^∂123): failed to alter the tumbling speed of the complex
- IC50 (FGFR2^∂23-Y328D): 121 ± 30 nM
- binding to TNF-R1 extracellular protein [2]: no binding is observed
